What was measured:
UGT1A9 = target: T1, UGT1A9 (Homo sapiens, UniProt O60656); assay: enzyme inhibition in vitro; format: in vitro ADME
T1 sequence (O60656 26-530): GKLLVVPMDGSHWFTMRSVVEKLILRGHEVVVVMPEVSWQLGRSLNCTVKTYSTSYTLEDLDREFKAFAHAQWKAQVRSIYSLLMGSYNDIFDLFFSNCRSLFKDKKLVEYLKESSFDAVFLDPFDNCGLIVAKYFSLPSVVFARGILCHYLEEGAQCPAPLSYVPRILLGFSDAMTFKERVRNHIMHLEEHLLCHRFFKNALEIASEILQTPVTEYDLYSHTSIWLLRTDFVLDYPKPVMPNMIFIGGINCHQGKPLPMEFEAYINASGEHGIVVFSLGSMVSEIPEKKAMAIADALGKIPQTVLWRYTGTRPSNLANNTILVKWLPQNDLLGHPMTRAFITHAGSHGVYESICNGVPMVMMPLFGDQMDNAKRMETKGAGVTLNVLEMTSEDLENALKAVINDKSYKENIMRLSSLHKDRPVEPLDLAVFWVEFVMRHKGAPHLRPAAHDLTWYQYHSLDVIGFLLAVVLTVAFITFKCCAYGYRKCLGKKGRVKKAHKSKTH

P-gp = P-gp (Homo sapiens, UniProt P08183); assay: transporter substrate in vitro; format: in vitro ADME
CYP2D6 = CYP2D6 (Homo sapiens, UniProt P10635); assay: metabolism in vitro; format: in vitro ADME
lung function = assay: Example 1: percent predicted FVC change from baseline; format: in vivo, human; conditions: mean (SD)
Method: Change From Baseline in Percent Predicted Forced Vital Capacity (FVC) at Each Specified Time Points. FVC was the total amount of air (in liters) exhaled from the lungs during the lung function test measured by spirometer which assessed the change in lung function related to the disease status. Baseline value was defined as valid and last non-missing value obtained within 28 days prior to participant receiving first study medication. EOT visit was performed within 3 days after the participant's last dose of study drug. […] Analysis was performed on mITT population. Here, ‘number analyzed’=participants with available data for each specified category. Here, ‘0’ in the number analyzed field signifies that none of the participants were available for the analysis at the specified time points.

CYP2D6, sequence (P10635 whole entry): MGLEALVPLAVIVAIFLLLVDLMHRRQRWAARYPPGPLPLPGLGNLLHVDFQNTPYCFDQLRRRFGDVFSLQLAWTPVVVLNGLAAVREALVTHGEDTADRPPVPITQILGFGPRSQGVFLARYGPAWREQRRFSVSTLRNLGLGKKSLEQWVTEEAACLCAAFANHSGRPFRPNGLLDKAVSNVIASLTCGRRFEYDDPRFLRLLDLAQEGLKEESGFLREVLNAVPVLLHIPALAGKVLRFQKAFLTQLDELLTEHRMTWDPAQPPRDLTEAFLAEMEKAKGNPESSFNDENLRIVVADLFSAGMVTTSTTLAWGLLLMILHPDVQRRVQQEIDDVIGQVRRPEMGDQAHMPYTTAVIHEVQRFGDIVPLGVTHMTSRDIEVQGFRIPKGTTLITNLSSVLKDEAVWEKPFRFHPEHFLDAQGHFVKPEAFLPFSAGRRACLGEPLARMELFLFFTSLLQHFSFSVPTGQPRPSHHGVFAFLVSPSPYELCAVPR
P-gp, sequence (P08183 whole entry): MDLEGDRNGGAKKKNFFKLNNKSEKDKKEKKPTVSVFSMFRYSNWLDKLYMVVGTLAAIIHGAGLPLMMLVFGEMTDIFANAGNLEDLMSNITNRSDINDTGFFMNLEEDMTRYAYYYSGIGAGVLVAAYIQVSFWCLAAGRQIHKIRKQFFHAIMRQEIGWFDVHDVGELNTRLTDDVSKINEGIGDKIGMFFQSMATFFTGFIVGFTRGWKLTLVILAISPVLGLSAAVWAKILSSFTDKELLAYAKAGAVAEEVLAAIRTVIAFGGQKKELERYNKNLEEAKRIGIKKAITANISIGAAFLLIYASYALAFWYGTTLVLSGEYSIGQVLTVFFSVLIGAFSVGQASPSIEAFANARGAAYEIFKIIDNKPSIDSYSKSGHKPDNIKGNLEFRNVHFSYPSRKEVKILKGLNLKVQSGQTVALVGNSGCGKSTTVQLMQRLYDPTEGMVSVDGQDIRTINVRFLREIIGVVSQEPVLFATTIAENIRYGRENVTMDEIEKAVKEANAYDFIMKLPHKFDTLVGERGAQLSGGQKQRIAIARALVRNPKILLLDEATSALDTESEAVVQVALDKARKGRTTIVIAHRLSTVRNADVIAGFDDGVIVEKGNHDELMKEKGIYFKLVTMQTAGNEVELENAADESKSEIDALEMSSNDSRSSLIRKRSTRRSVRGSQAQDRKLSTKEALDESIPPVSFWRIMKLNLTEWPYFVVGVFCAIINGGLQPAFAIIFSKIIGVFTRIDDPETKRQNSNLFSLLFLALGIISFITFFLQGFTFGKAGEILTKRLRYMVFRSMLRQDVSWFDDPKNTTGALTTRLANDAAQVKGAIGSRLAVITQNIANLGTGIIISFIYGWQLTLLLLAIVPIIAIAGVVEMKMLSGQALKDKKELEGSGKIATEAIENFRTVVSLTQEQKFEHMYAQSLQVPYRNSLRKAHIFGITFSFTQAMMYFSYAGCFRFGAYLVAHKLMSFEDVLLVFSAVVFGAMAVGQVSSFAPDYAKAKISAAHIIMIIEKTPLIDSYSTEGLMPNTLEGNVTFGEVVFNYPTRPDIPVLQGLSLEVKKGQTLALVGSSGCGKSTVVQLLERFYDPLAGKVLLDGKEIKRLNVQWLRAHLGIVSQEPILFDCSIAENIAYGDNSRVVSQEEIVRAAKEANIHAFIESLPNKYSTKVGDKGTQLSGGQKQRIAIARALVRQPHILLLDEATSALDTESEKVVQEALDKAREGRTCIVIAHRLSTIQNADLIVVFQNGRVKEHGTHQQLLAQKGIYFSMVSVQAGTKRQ

Structure (SMILES): CC(C)NC(=O)COc1cccc(-c2nc(Nc3ccc4[nH]ncc4c3)c3ccccc3n2)c1 [Belumosudil, 2-{3-[4-(1H-indazol-5-ylamino)-2-quinazolinyl]phenoxy}-N-(propan-2-yl) acetamide]
- inhibition of UGT1A9 (UGT1A9): inhibitor
- P-gp substrate (P-gp): substrate of P-gp
- metabolism by CYP2D6 (CYP2D6): to a lesser extent
- Change From Baseline in Percent Predicted Forced Vital Capacity (FVC) (lung function; Cohort 1: 200 mg QD, Cycle 3, Day 1): 0.5 (3.8) percent predicted FVC
- Change From Baseline in Percent Predicted Forced Vital Capacity (FVC) (lung function; Cohort 1: 200 mg QD, Cycle 5, Day 1): −0.5 (7.1) percent predicted FVC
- Change From Baseline in Percent Predicted Forced Vital Capacity (FVC) (lung function; Cohort 1: 200 mg QD, Cycle 7, Day 1): −2.9 (5.2) percent predicted FVC
- Change From Baseline in Percent Predicted Forced Vital Capacity (FVC) (lung function; Cohort 1: 200 mg QD, Cycle 9, Day 1): 0.4 (5.1) percent predicted FVC
- Change From Baseline in Percent Predicted Forced Vital Capacity (FVC) (lung function; Cohort 1: 200 mg QD, Cycle 11, Day 1): −1.1 (7.3) percent predicted FVC
- Change From Baseline in Percent Predicted Forced Vital Capacity (FVC) (lung function; Cohort 1: 200 mg QD, Cycle 12, Day 1): 2.0 (—) percent predicted FVC
- Change From Baseline in Percent Predicted Forced Vital Capacity (FVC) (lung function; Cohort 1: 200 mg QD, Cycle 13, Day 1): −2.4 (7.9) percent predicted FVC
- Change From Baseline in Percent Predicted Forced Vital Capacity (FVC) (lung function; Cohort 1: 200 mg QD, Cycle 14, Day 1): 11.0 (—) percent predicted FVC
- Change From Baseline in Percent Predicted Forced Vital Capacity (FVC) (lung function; Cohort 1: 200 mg QD, Cycle 15, Day 1): −3.7 (10.4) percent predicted FVC
- Change From Baseline in Percent Predicted Forced Vital Capacity (FVC) (lung function; Cohort 1: 200 mg QD, Cycle 16, Day 1): 16.0 (—) percent predicted FVC
- Change From Baseline in Percent Predicted Forced Vital Capacity (FVC) (lung function; Cohort 1: 200 mg QD, Cycle 17, Day 1): −3.2 (6.3) percent predicted FVC
- Change From Baseline in Percent Predicted Forced Vital Capacity (FVC) (lung function; Cohort 1: 200 mg QD, Cycle 19, Day 1): −2.3 (6.8) percent predicted FVC
- Change From Baseline in Percent Predicted Forced Vital Capacity (FVC) (lung function; Cohort 1: 200 mg QD, Cycle 21, Day 1): −3.2 (8.1) percent predicted FVC
- Change From Baseline in Percent Predicted Forced Vital Capacity (FVC) (lung function; Cohort 1: 200 mg QD, Cycle 23, Day 1): 0.0 (12.3) percent predicted FVC
- Change From Baseline in Percent Predicted Forced Vital Capacity (FVC) (lung function; Cohort 1: 200 mg QD, Cycle 24, Day 1): 4.0 (—) percent predicted FVC
- Change From Baseline in Percent Predicted Forced Vital Capacity (FVC) (lung function; Cohort 1: 200 mg QD, Cycle 25, Day 1): −7.0 (11.3) percent predicted FVC
- Change From Baseline in Percent Predicted Forced Vital Capacity (FVC) (lung function; Cohort 1: 200 mg QD, Cycle 26, Day 1): 4.0 (—) percent predicted FVC
- Change From Baseline in Percent Predicted Forced Vital Capacity (FVC) (lung function; Cohort 1: 200 mg QD, Cycle 27, Day 1): −2.0 (4.2) percent predicted FVC
- Change From Baseline in Percent Predicted Forced Vital Capacity (FVC) (lung function; Cohort 1: 200 mg QD, Cycle 29, Day 1): 2.5 (4.9) percent predicted FVC
- Change From Baseline in Percent Predicted Forced Vital Capacity (FVC) (lung function; Cohort 1: 200 mg QD, Cycle 30, Day 1): 4.0 (—) percent predicted FVC
- Change From Baseline in Percent Predicted Forced Vital Capacity (FVC) (lung function; Cohort 1: 200 mg QD, Cycle 31, Day 1): 1.5 (3.5) percent predicted FVC
- Change From Baseline in Percent Predicted Forced Vital Capacity (FVC) (lung function; Cohort 1: 200 mg QD, Cycle 32, Day 1): 2.0 (—) percent predicted FVC
- Change From Baseline in Percent Predicted Forced Vital Capacity (FVC) (lung function; Cohort 1: 200 mg QD, Cycle 33, Day 1): 11.0 (0.0) percent predicted FVC
- Change From Baseline in Percent Predicted Forced Vital Capacity (FVC) (lung function; Cohort 1: 200 mg QD, Cycle 34, Day 1): 6.0 (—) percent predicted FVC
- Change From Baseline in Percent Predicted Forced Vital Capacity (FVC) (lung function; Cohort 1: 200 mg QD, Cycle 35, Day 1): 11.0 (5.7) percent predicted FVC
- Change From Baseline in Percent Predicted Forced Vital Capacity (FVC) (lung function; Cohort 1: 200 mg QD, Cycle 36, Day 1): 5.0 (—) percent predicted FVC
- Change From Baseline in Percent Predicted Forced Vital Capacity (FVC) (lung function; Cohort 1: 200 mg QD, Cycle 48, Day 1): 5.0 (—) percent predicted FVC
- Change From Baseline in Percent Predicted Forced Vital Capacity (FVC) (lung function; Cohort 1: 200 mg QD, Cycle 49, Day 1): 6.0 (—) percent predicted FVC
- Change From Baseline in Percent Predicted Forced Vital Capacity (FVC) (lung function; Cohort 1: 200 mg QD, Cycle 51, Day 1): 9.0 (—) percent predicted FVC
- Change From Baseline in Percent Predicted Forced Vital Capacity (FVC) (lung function; Cohort 1: 200 mg QD, Cycle 52, Day 1): 3.0 (—) percent predicted FVC
- Change From Baseline in Percent Predicted Forced Vital Capacity (FVC) (lung function; Cohort 1: 200 mg QD, Cycle 53, Day 1): 8.0 (—) percent predicted FVC
- Change From Baseline in Percent Predicted Forced Vital Capacity (FVC) (lung function; Cohort 1: 200 mg QD, Cycle 54, Day 1): 5.0 (—) percent predicted FVC
- Change From Baseline in Percent Predicted Forced Vital Capacity (FVC) (lung function; Cohort 1: 200 mg QD, Cycle 55, Day 1): 13.0 (—) percent predicted FVC
- Change From Baseline in Percent Predicted Forced Vital Capacity (FVC) (lung function; Cohort 1: 200 mg QD, Cycle 56, Day 1): 7.0 (—) percent predicted FVC
- Change From Baseline in Percent Predicted Forced Vital Capacity (FVC) (lung function; Cohort 1: 200 mg QD, Cycle 57, Day 1): 14.0 (—) percent predicted FVC
- Change From Baseline in Percent Predicted Forced Vital Capacity (FVC) (lung function; Cohort 1: 200 mg QD, Cycle 58, Day 1): 7.0 (—) percent predicted FVC
- Change From Baseline in Percent Predicted Forced Vital Capacity (FVC) (lung function; Cohort 1: 200 mg QD, Cycle 60, Day 1): 8.0 (—) percent predicted FVC
- Change From Baseline in Percent Predicted Forced Vital Capacity (FVC) (lung function; Cohort 1: 200 mg QD, Cycle 61, Day 1): 12.0 (—) percent predicted FVC
- Change From Baseline in Percent Predicted Forced Vital Capacity (FVC) (lung function; Cohort 1: 200 mg QD, Cycle 62, Day 1): 5.0 (—) percent predicted FVC
- Change From Baseline in Percent Predicted Forced Vital Capacity (FVC) (lung function; Cohort 1: 200 mg QD, Cycle 63, Day 1): 12.0 (—) percent predicted FVC
- Change From Baseline in Percent Predicted Forced Vital Capacity (FVC) (lung function; Cohort 1: 200 mg QD, Cycle 67, Day 1): 14.0 (—) percent predicted FVC
- Change From Baseline in Percent Predicted Forced Vital Capacity (FVC) (lung function; Cohort 1: 200 mg QD, EOT): −2.5 (10.3) percent predicted FVC
- Change From Baseline in Percent Predicted Forced Vital Capacity (FVC) (lung function; Cohort 2: 200 mg BID, Cycle 3, Day 1): −2.4 (6.0) percent predicted FVC
- Change From Baseline in Percent Predicted Forced Vital Capacity (FVC) (lung function; Cohort 2: 200 mg BID, Cycle 5, Day 1): −4.3 (5.2) percent predicted FVC
- Change From Baseline in Percent Predicted Forced Vital Capacity (FVC) (lung function; Cohort 2: 200 mg BID, Cycle 7, Day 1): −1.3 (6.4) percent predicted FVC
- Change From Baseline in Percent Predicted Forced Vital Capacity (FVC) (lung function; Cohort 2: 200 mg BID, Cycle 8, Day 1): 2.0 (—) percent predicted FVC
- Change From Baseline in Percent Predicted Forced Vital Capacity (FVC) (lung function; Cohort 2: 200 mg BID, Cycle 9, Day 1): −2.9 (5.5) percent predicted FVC
- Change From Baseline in Percent Predicted Forced Vital Capacity (FVC) (lung function; Cohort 2: 200 mg BID, Cycle 10, Day 1): −5.0 (8.5) percent predicted FVC
- Change From Baseline in Percent Predicted Forced Vital Capacity (FVC) (lung function; Cohort 2: 200 mg BID, Cycle 11, Day 1): −2.7 (5.6) percent predicted FVC
- Change From Baseline in Percent Predicted Forced Vital Capacity (FVC) (lung function; Cohort 2: 200 mg BID, Cycle 12, Day 1): 1.0 (—) percent predicted FVC
- Change From Baseline in Percent Predicted Forced Vital Capacity (FVC) (lung function; Cohort 2: 200 mg BID, Cycle 13, Day 1): −3.3 (15.4) percent predicted FVC
- Change From Baseline in Percent Predicted Forced Vital Capacity (FVC) (lung function; Cohort 2: 200 mg BID, Cycle 14, Day 1): 2.0 (— ) percent predicted FVC
- Change From Baseline in Percent Predicted Forced Vital Capacity (FVC) (lung function; Cohort 2: 200 mg BID, Cycle 15, Day 1): −3.3 (5.5) percent predicted FVC
- Change From Baseline in Percent Predicted Forced Vital Capacity (FVC) (lung function; Cohort 2: 200 mg BID, Cycle 16, Day 1): −6.0 (19.8) percent predicted FVC
- Change From Baseline in Percent Predicted Forced Vital Capacity (FVC) (lung function; Cohort 2: 200 mg BID, Cycle 17, Day 1): −3.0 (11.8) percent predicted FVC
- Change From Baseline in Percent Predicted Forced Vital Capacity (FVC) (lung function; Cohort 2: 200 mg BID, Cycle 18, Day 1): −7.5 (9.2) percent predicted FVC
- Change From Baseline in Percent Predicted Forced Vital Capacity (FVC) (lung function; Cohort 2: 200 mg BID, Cycle 19, Day 1): −5.3 (4.7) percent predicted FVC
- Change From Baseline in Percent Predicted Forced Vital Capacity (FVC) (lung function; Cohort 2: 200 mg BID, Cycle 20, Day 1): −10.5 (2.1) percent predicted FVC
- Change From Baseline in Percent Predicted Forced Vital Capacity (FVC) (lung function; Cohort 2: 200 mg BID, Cycle 21, Day 1): −3.0 (—) percent predicted FVC
- Change From Baseline in Percent Predicted Forced Vital Capacity (FVC) (lung function; Cohort 2: 200 mg BID, Cycle 22, Day 1): −11.0 (0.0) percent predicted FVC

— patent US20260027116A1, “Methods of Treating Chronic Graft-Versus-Host Disease Following Allogeneic Hematopoietic Stem Cell Transplantation” (Kadmon Corporation, LLC, priority 2022, published 2026)
